For the assay, the target named is T1, glucocorticoid receptor (Homo sapiens, UniProt P04150).
T1 construct: host or cells: A549 human lung epithelial cells (sonicated cell extract)
T1 sequence (P04150 1-777): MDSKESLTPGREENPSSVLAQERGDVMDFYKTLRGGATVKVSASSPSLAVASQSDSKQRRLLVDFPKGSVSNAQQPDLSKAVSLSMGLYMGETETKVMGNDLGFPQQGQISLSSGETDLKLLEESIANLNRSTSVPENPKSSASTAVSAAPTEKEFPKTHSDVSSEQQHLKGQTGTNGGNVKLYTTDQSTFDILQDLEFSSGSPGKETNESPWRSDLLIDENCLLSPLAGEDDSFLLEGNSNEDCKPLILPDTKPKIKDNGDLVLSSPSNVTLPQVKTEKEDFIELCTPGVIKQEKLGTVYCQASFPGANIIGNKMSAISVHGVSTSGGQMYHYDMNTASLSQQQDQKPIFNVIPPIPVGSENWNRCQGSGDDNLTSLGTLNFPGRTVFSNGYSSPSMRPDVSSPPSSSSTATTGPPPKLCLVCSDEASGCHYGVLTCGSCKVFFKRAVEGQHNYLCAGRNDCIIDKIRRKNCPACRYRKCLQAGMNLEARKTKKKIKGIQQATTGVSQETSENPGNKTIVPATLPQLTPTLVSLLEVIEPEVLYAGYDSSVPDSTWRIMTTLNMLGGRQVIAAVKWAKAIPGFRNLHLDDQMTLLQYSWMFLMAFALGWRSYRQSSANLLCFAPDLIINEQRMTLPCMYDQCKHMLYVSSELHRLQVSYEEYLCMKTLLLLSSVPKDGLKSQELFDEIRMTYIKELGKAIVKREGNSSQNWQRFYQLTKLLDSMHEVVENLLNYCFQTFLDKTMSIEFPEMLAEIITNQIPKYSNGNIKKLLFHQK
In words: Glucocorticoid Receptor Binding Assay ([3H]-dexamethasone displacement, A549 cell extract). To be noted: A549 human lung epithelial cell extract, 1.86 nM [3H]-dexamethasone; read-out: GR Ki. The procedure, abridged:
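A549 cell extract (50-200 ug; buffer 50 mM Tris-HCl pH 7.2 with glycerol, NaCl, MgCl2, EDTA, 10 mM molybdate) incubated with 1.86 nM [3H]-dexamethasone and test compound, 16 h at 4 °C. Unbound ligand removed with dextran-coated charcoal; bound radioactivity counted. IC50 converted to Ki via Cheng-Prusoff.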

pKi: −log10 of the molar value.

In the case of `Cc1cc(C2(c3cc(C)c(O)c(C)c3)C(=O)N(Cc3ccccc3N)c3ccccc32)cc(C)c1O` [Example 119, 1-(2-Amino-benzyl)-3,3-bis-(4-hydroxy-3,5-dimethyl-phenyl)-1,3-dihydro-indol-2-one], the pKi was no less than 6.30.

Take `Cc1ccc(N2C(=O)C(c3cc(C)c(O)c(C)c3)(c3cc(C)c(O)c(C)c3)c3ccccc32)cc1` [Example 125, 3,3-Bis-(4-hydroxy-3,5-dimethyl-phenyl)-1-p-tolyl-1,3-dihydro-indol-2-one]: the pKi is no less than 6.30.

Take `Cc1cc(C2(c3cc(C)c(O)c(C)c3)C(=O)N(c3ccccc3)c3ccccc32)cc(C)c1O` [Example 126, 3,3-Bis-(4-hydroxy-3,5-dimethyl-phenyl)-1-phenyl-1,3-dihydro-indol-2-one]: the pKi is no less than 6.30.

Consider `Cc1cc(C2(c3cc(C)c(O)c(C)c3)C(=O)N(c3cccc(C(F)(F)F)c3)c3ccccc32)cc(C)c1O` [Example 127, 3,3-Bis-(4-hydroxy-3,5-dimethyl-phenyl)-1-(3-trifluoromethyl-phenyl)-1,3-dihydro-indol-2-one], for which the pKi was no less than 6.30.

Consider `Cc1cc(C2(c3cc(C)c(O)c(C)c3)C(=O)N(c3ccccc3Cl)c3ccccc32)cc(C)c1O` [Example 129, 1-(2-Chloro-phenyl)-3,3-bis-(4-hydroxy-3,5-dimethyl-phenyl)-1,3-dihydro-indol-2-one], for which the pKi is no less than 6.30.

As to `Cc1cc(C2(c3cc(C)c(O)c(C)c3)C(=O)N(c3cccc(F)c3)c3ccccc32)cc(C)c1O` [Example 130, 1-(3-Fluoro-phenyl)-3,3-bis-(4-hydroxy-3,5-dimethyl-phenyl)-1,3-dihydro-indol-2-one], the pKi was no less than 6.30.

In the case of `Cc1cc(C2(c3cc(C)c(O)c(C)c3)C(=O)N(c3ccc(C(F)(F)F)cc3)c3ccccc32)cc(C)c1O` [Example 131, 3,3-Bis-(4-hydroxy-3,5-dimethyl-phenyl)-1-(4-trifluoromethyl-phenyl)-1,3-dihydro-indol-2-one], the pKi was no less than 6.30.

Regarding `Cc1ccccc1N1C(=O)C(c2cc(C)c(O)c(C)c2)(c2cc(C)c(O)c(C)c2)c2ccccc21` [Example 132, 3,3-Bis-(4-hydroxy-3,5-dimethyl-phenyl)-1-o-tolyl-1,3-dihydro-indo 1-2-one], the pKi was no less than 6.30.

Consider `Cc1cccc(N2C(=O)C(c3cc(C)c(O)c(C)c3)(c3cc(C)c(O)c(C)c3)c3ccccc32)c1` [Example 133, 3,3-Bis-(4-hydroxy-3,5-dimethyl-phenyl)-1-m-tolyl-1,3-dihydro-indol-2-one], for which the pKi is no less than 6.30.

On to `Cc1cc(C2(c3cc(C)c(O)c(C)c3)C(=O)N(c3ccncc3)c3ccccc32)cc(C)c1O` [Example 136, 3,3-Bis-(4-hydroxy-3,5-dimethyl-phenyl)-1-pyridin-4-yl-1,3-dihydro-indol-2-one], for which the pKi is no less than 6.30.

For `CCOc1cccc(N2C(=O)C(c3cc(C)c(O)c(C)c3)(c3cc(C)c(O)c(C)c3)c3ccccc32)c1` [Example 137, 1-(3-Ethoxy-phenyl)-3,3-bis-(4-hydroxy-3,5-dimethyl-phenyl)-1,3-dihydro-indol-2-one], the pKi is no less than 6.30.

Turning to `Cc1cc(C2(c3cc(C)c(O)c(C)c3)C(=O)N(c3cccc(C(C)C)c3)c3ccccc32)cc(C)c1O` [Example 138, 3,3-Bis-(4-hydroxy-3,5-dimethyl-phenyl)-1-(3-isopropyl-phenyl)-1,3-dihydro-indol-2-one], the pKi is no less than 6.30.

As to `COc1ccc(N2C(=O)C(c3cc(C)c(O)c(C)c3)(c3cc(C)c(O)c(C)c3)c3ccccc32)cc1OC` [Example 140, 1-(3,4-Dimethoxy-phenyl)-3,3-bis-(4-hydroxy-3,5-dimethyl-phenyl)-1,3-dihydro-indol-2-one], the pKi was no less than 6.30.

Consider `COC(=O)c1cccc(-c2noc(CN3C(=O)C(c4cc(C)c(O)c(C)c4)(c4cc(C)c(O)c(C)c4)c4ccccc43)n2)c1` [Example 141, 3-{5-[3,3-Bis-(4-hydroxy-3,5-dimethyl-phenyl)-2-oxo-2,3-dihydro-indol-1-ylmethyl]-[1,2,4]oxadiazol-3-yl}-benzoic acid methyl ester], for which the pKi is no less than 6.30.

Regarding `COc1ccc(-c2noc(CN3C(=O)C(c4cc(C)c(O)c(C)c4)(c4cc(C)c(O)c(C)c4)c4ccccc43)n2)cc1` [Example 142, 3,3-Bis-(4-hydroxy-3,5-dimethyl-phenyl)-1-[3-(4-methoxy-phenyl)-[1,2,4]oxadiazol-5-ylmethyl]-1,3-dihydro-indol-2-one], the pKi was no less than 6.00.

As for `COc1nccc(N2C(=O)C(c3cc(C)c(O)c(C)c3)(c3cc(C)c(O)c(C)c3)c3ccccc32)n1` [Example 143, 3,3-Bis-(4-hydroxy-3,5-dimethyl-phenyl)-1-(2-methoxy-pyrimidin-4-yl)-1,3-dihydro-indol-2-one], the pKi was no less than 6.30.

The term pKi denotes −log10 of the Ki, conventionally taken in molar units.

Source of the values: US7250442B2, “Dihydroindol-2-one derivatives as steroid hormone nuclear receptor modulators” (Eli Lilly and Company, priority 2003, dated 2007).
